Article PMC5129993, “Everolimus induces Met inactivation by disrupting the FKBP12/Met complex” (Oncotarget, 2016)
pIC50: −log10 of the molar value.

Key:
phospho-Met = test: Western blot analysis of Met phosphorylation in human cancer cell lines; format: cell-based; conditions: 24 hours; for Met phosphorylation: 0.5 μM; for phosphorylation of Met: 786-O EveR and HCT116 cells, 1 μM (siRNA 50 nM)
Procedure: (§1) Total protein extracts obtained from cell cultures or tumor specimens were resolved by 4-15% SDS-PAGE and probed with anti-human, polyclonal pMet Y1349, polyclonal Met, monoclonal pp70S6K T412 and p70S6K (Merck-Millipore Darmstadt, Germany), monoclonal actin (Sigma-Aldrich, Milan, Italy), monoclonal FKBP12, polyclonal mTOR, Raptor, and Rictor. Co-immunoprecipitation analyses were performed with anti-Met; membranes were blotted with anti-FKBP12. The total lysate from 786-O, 786-O EveR and HCT116 cells served as positive control. Immunoreactive proteins were visualized by enhanced chemiluminescence (Pierce, Rockford, IL, USA). Densitometry was performed with Image J software (NIH, Bethesda, MD, USA).

phospho-p70S6K = test: Western blot analysis of p70S6K phosphorylation in human cancer cell lines; format: cell-based; conditions: 24 hours; for phospho-p70S6K: 786-O and MDA-MB-231 cells; for phosphorylation of p70S6K: 786-O EveR and HCT116 cells, 1 μM (siRNA 50 nM)
Procedure: as §1

[1] = test system: T47D cells with Met M1268T mutant; test: Cell density assay (MTT), Met-transduced T47D; format: cell-based, human
Procedure: (§2) The percentage of cell density was determined using the 3-(4,5-dimethylthiazol-2-yl)-2,5-diphenyltetrazolium bromide (MTT) assay according to the manufacturer's instructions (Sigma-Aldrich, Milan, Italy). […]
(§3) (iii) an active conformation. The resulting selected Met [Follenzi A, Nat Genet. 2000]. […]
(§4) We used the pRRL.sin.PPT.hCMV.GFP.
(§5) Cα] at the 80 loop level (frame 13). To generate the Met/pre vector as control. […]

[2] = test system: T47D cells with Met Y1235D mutant; test: Cell density assay (MTT), Met-transduced T47D; format: cell-based, human
Procedure: as §2, §3, §4, §5

T47D cells with wt Met = test: Cell density assay (MTT), Met-transduced T47D; format: cell-based, human
Procedure: as §2, §3, §4, §5

[3] = test system: everolimus-resistant HCT116 cells; test: Subcutaneous murine colorectal cancer model (HCT116 xenograft); conditions: for Median survival: subcutaneous HCT116 xenograft, 10 mice/group
Text: We subcutaneously xenografted everolimus-resistant HCT116 cells into 50 four- to six-week-old female BALB/c athymic nu+/nu+ (nude) mice (Charles River Laboratories, Milan, Italy). Forty animals were used to carry out the subcutaneous colorectal cancer model experiment; when tumors reached a mean volume of 1 cm^3, 10 animals were euthanized, tumors were divided into 2-mm-sized pieces and microsurgically implanted in the cecum of 40 Balb/C nude mice for the orthotopic experiment. See Supplementary Methods for further details about the surgical procedure and the treatment schedule. […]

[4] = test system: everolimus-resistant HCT116 cells; test: Orthotopic murine colorectal cancer model (HCT116 in cecum); format: in vivo, Balb/C nude mice; conditions: orthotopic HCT116, four weeks after tumor implantation
Procedure: The cecum was then placed
Seven days after implantation, […]
p/6 x larger diameter x (smaller diameter)2. […]
diameter was assessed with ultrasonography (VEVO,
Committee. Primary tumors in the cecum were excised
The final tumor was measured with a caliper surgical site was isolated in a sterile fashion.
J Am Chem Soc. 2003; 125: 8827-8837.
Uncoupling signal transducers from oncogenic MET 6.
2. […] 2000; 25: 217-222.
Unbinding pathways from the glucocorticoid receptor shed 7. Michnick SW, Rosen MK, Wandless TJ, Karplus M, […]
Solution structure of FKBP, a rotamase a naturally occurring, clinically relevant mutant receptor. J enzyme and receptor for FK506 and rapamycin. Science.
3. […] Mustafi SM, LeMaster DM, Hernández G. Differential […]
cytoreductive antitumor activity in vivo.
HADDOCK2.0 on the CAPRI targets. Proteins.
726-733. JR, Soisson SM, Lumb KJ. Structural basis for selective

Met D1228H = target: T1, Met D1228H (Homo sapiens, UniProt P08581, D1228H); test: In vitro Met kinase inhibition assay (ProQinase, radiometric 33PanQinase); format: biochemical
T1 construct: purchased ProQinase GmbH (screening service)
T1 sequence (P08581 25-1390 D1228H): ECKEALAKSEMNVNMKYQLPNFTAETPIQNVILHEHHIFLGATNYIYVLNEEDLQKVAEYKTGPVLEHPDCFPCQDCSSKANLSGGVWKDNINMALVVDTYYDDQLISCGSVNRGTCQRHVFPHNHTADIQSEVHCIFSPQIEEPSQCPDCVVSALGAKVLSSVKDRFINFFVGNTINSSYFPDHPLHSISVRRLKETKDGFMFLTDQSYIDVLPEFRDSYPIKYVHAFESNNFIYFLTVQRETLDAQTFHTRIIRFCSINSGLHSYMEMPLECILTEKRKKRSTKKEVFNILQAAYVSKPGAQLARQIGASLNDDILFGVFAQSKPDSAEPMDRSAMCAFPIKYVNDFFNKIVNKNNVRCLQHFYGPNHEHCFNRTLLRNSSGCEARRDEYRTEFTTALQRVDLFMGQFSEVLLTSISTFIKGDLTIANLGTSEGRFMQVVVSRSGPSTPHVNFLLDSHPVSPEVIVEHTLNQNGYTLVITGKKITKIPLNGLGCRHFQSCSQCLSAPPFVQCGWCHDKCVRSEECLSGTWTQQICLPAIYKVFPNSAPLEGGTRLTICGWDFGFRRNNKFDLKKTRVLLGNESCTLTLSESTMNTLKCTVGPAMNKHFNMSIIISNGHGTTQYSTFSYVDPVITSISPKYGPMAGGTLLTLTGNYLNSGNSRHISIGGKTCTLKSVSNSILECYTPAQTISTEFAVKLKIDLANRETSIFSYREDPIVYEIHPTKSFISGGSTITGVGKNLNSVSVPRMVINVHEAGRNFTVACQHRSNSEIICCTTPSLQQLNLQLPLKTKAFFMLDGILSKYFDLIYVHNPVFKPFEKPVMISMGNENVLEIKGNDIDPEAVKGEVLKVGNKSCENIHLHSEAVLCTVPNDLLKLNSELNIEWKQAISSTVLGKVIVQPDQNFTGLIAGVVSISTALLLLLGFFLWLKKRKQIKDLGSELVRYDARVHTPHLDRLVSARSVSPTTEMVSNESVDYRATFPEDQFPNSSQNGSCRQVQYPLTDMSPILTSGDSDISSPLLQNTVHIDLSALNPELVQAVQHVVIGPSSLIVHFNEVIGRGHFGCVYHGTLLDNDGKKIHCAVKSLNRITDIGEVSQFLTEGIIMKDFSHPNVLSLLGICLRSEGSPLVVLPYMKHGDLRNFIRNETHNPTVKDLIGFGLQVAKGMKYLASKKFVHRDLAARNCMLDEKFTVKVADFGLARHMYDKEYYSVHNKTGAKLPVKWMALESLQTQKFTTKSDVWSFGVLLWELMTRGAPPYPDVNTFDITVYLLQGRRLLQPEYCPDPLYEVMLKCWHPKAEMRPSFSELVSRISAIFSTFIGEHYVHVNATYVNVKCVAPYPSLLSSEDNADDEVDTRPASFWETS
Procedure: (§6) In vitro Met kinase inhibition assay equilibrated using NAMD2.8 [Phillips JC, J Comput Chem.
(§7) The Met kinase inhibition by everolimus was analyzed 2005], and the final MD simulation was conducted applying […]
(§8) ProQinase (ProQinase GmbH, Freiburg, Germany). Briefly, J Med Chem. 2013].
(§9) -10 - trajectories. The complex was aligned on the Cα atoms of different concentrations (standard range: 3x10M–1x10 Met, while the backbone atoms Root-mean-square deviation 5M; semilog dilutions) against human recombinant wt
(§10) Met and nine Met mutant protein kinases, and IC values (RMSD) of FKBP12 was measured and used to cluster the 50 trajectories. The cluster analysis was performed using ptraj […]
(§11) All assays were Å. Finally, the representative structure of the most populated performed at the corresponding apparent ATP Km of each cluster was choosen as the final Met/FKBP12 complex. […]

Met F1200I = target: T2, Met F1200I (Homo sapiens, UniProt P08581, F1200I); test: as above; format: biochemical
T2 construct: purchased ProQinase GmbH (screening service)
Procedure: as §6, §7, §8, §9, §10, §11

Met M1250T = target: T3, Met M1250T (Homo sapiens, UniProt P08581, M1250T); test: as above; format: biochemical
T3 construct: purchased ProQinase GmbH (screening service)
Procedure: as §6, §7, §8, §9, §10, §11

Met Y1230A = target: T4, Met Y1230A (Homo sapiens, UniProt P08581, Y1230A); test: as above; format: biochemical
T4 construct: purchased ProQinase GmbH (screening service)
T4 sequence (P08581 25-1390 Y1230A): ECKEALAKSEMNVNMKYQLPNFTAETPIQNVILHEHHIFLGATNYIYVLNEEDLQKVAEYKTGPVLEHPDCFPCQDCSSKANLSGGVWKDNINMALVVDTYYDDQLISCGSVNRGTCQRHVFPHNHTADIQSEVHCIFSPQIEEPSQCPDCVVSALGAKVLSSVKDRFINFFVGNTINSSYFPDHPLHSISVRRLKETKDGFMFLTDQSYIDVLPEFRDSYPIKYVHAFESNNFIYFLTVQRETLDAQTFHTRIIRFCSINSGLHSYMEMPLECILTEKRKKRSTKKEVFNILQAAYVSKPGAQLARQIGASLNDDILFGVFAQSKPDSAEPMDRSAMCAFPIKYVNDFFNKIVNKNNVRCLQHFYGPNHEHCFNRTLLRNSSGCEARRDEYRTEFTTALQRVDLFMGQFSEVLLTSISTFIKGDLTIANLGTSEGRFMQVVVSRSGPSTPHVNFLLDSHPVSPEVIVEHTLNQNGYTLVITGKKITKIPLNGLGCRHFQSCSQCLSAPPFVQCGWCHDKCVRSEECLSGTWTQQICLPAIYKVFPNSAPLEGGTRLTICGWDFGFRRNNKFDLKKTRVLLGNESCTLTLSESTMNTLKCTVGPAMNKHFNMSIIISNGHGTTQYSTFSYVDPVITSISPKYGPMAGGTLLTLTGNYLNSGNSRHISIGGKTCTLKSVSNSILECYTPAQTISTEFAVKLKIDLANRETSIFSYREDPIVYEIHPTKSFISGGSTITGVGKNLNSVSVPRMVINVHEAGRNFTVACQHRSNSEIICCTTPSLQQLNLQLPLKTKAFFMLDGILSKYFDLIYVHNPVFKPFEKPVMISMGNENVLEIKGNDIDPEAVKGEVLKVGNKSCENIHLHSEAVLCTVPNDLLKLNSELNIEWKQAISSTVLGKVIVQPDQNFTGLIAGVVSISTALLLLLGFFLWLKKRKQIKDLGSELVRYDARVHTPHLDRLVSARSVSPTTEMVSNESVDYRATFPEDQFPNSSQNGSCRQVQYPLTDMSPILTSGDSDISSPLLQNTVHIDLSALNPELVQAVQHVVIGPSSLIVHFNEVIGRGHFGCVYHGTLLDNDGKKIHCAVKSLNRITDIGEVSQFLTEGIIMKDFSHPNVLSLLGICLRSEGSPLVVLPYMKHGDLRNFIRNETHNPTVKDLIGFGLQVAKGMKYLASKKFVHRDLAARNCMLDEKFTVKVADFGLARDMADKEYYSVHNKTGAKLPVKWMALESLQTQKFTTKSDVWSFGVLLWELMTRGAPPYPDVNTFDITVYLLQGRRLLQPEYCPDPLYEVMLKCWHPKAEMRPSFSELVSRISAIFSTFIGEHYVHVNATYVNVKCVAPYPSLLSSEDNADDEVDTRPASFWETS
Procedure: as §6, §7, §8, §9, §10, §11

Met Y1230D = target: T5, Met Y1230D (Homo sapiens, UniProt P08581, Y1230D); test: as above; format: biochemical
T5 construct: purchased ProQinase GmbH (screening service)
Procedure: as §6, §7, §8, §9, §10, §11

Met Y1230H = target: T6, Met Y1230H (Homo sapiens, UniProt P08581, Y1230H); test: as above; format: biochemical
T6 construct: purchased ProQinase GmbH (screening service)
Procedure: as §6, §7, §8, §9, §10, §11

Met D1228N = target: T7, Met D1228N (Homo sapiens, UniProt P08581, D1228N); test: as above; format: biochemical
T7 construct: purchased ProQinase GmbH (screening service)
Procedure: as §6, §7, §8
(§12) -10 - trajectories. The complex was aligned on the Cα atoms of different concentrations (standard range: 3x10M–1x10 Met, while the backbone atoms Root-mean-square deviation 5M; semilog dilutions) against human recombinant wt […]
as §11

Met Wild-type = target: T8, Met Wild-type (Homo sapiens, UniProt P08581); test: as above; format: biochemical; conditions: Met TK Wild-type; 0.3 nM to 10 μM, singlicate; apparent ATP Km
T8 construct: purchased ProQinase GmbH (screening service)
T8 sequence (P08581 25-1390): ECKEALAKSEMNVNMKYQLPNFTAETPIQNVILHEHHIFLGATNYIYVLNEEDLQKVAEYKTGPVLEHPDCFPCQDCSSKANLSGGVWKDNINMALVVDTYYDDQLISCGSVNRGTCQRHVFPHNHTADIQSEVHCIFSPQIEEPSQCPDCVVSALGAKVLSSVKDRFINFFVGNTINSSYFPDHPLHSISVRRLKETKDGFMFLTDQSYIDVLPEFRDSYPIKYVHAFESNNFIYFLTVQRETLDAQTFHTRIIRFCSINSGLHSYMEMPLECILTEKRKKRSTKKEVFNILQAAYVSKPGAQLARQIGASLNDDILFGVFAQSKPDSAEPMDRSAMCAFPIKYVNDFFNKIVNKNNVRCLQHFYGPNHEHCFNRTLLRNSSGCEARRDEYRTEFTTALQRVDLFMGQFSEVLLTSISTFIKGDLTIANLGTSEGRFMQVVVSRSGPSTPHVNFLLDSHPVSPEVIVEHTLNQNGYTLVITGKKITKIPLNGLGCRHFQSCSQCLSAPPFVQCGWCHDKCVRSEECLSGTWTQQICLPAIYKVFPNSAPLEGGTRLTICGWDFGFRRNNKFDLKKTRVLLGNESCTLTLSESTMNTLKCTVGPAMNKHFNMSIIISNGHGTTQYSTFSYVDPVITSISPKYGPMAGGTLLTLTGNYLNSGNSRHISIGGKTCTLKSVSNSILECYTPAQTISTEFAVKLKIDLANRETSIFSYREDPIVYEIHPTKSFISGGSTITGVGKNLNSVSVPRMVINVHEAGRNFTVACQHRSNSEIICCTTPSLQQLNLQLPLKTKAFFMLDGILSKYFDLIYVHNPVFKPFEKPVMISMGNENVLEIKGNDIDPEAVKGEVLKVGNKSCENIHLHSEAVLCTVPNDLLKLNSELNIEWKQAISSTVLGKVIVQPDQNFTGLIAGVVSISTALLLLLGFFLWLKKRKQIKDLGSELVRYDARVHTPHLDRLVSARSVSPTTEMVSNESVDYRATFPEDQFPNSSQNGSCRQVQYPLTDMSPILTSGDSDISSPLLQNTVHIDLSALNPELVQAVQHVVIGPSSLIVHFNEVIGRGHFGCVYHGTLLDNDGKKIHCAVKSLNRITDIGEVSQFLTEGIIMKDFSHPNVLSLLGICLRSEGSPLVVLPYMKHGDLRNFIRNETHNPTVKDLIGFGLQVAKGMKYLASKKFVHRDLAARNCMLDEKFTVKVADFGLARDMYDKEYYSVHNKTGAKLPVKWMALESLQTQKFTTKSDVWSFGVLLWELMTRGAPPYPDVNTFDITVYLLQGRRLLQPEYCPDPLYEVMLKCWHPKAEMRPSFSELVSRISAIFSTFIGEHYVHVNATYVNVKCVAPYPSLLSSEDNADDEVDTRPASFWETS
Procedure: as §6, §7, §8, §12, §11

Met Y1230C = target: T9, Met Y1230C (Homo sapiens, UniProt P08581, Y1230C); test: as above; format: biochemical
T9 construct: purchased ProQinase GmbH (screening service)
Procedure: as §6, §7, §8, §12, §11

[5] = test system: 786-O EveR (everolimus-resistant) cells; test: Cell density assay (MTT); format: cell-based; conditions: Homo sapiens, 786-0, data not shown, read-out: concentration causing 50% reduction of cell density
Procedure: as §2

786-O cells = test: Cell density assay (MTT); format: cell-based; conditions: Homo sapiens, 786-0, 72 hours, read-out: concentration causing 50% reduction of cell density
Procedure: (§13) The percentage of cell density was determined using the 3-(4,5-dimethylthiazol-2-yl)-2,5-diphenyltetrazolium bromide (MTT) assay according to the manufacturer's instructions (Sigma-Aldrich, Milan, Italy).

ACHN cells = test: Cell density assay (MTT); format: cell-based; conditions: Homo sapiens, 72 hours, read-out: concentration causing 50% reduction of cell density
Procedure: as §13

HCT116 cells = test: Cell density assay (MTT); format: cell-based; conditions: Homo sapiens, HCT-116; HCT116, data not shown; read-out: concentration causing 50% reduction of cell density
Procedure: as §13

MDA-MB-231 cells = test: Cell density assay (MTT); format: cell-based; conditions: Homo sapiens, MDA-MB-231, 72 hours, read-out: concentration causing 50% reduction of cell density
Procedure: as §13

MDA-MB-361 cells = test: Cell density assay (MTT); format: cell-based; conditions: Homo sapiens, MDA-MB-361, 72 hours, read-out: concentration causing 50% reduction of cell density
Procedure: as §13

NCI-H1975 cells = test: Cell density assay (MTT); format: cell-based; conditions: Homo sapiens, NCI-H1975, 72 hours, read-out: concentration causing 50% reduction of cell density
Procedure: as §13

PC-9 cells = test: Cell density assay (MTT); format: cell-based; conditions: Homo sapiens, PC-9, 72 hours, read-out: concentration causing 50% reduction of cell density
Procedure: as §13

FKBP12/Met complex = target: T10, FKBP12/Met complex (Homo sapiens, UniProt P62942); test: Co-immunoprecipitation of FKBP12 with anti-Met antibody; format: cell-based; conditions: 0.5 μM, 24 hours
T10 construct: immunoprecipitated total cell lysates from everolimus-treated and -untreated 786-O cells; endogenous in cells; host or cells: 786-O (also 786-O EveR and HCT116)
T10 sequence (P62942 2-108 limits assumed, one chain of several): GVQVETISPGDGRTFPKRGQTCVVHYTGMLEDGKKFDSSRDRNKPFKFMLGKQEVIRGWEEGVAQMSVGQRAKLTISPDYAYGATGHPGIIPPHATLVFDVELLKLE
Procedure: as §1

[6] = day 42, 6 weeks after cell injection, everolimus 5 mg/kg per os, PHA665752 20 mg/kg i.v., five times a week for 2 weeks

## COc1cccc2cc(-c3nc([C@H]4CC[C@H](C(=O)O)CC4)n4ncnc(N)c34)[nH]c12 [OSI-027]
phospho-Met; 786-O and MDA-MB-231 cells
  Met phosphorylation: neither PKI-587 nor OSI-027 inhibited Met phosphorylation
phospho-p70S6K; 0.5 μM
  phospho-p70S6K: reduced phospho-p70S6K

## Cc1[nH]c(/C=C2\C(=O)Nc3ccc(S(=O)(=O)Cc4c(Cl)cccc4Cl)cc32)c(C)c1C(=O)N1CCC[C@@H]1CN1CCCC1 [PHA665752]
[1]; T47D Met M1268T, PHA665752 1 μM + everolimus 1 μM, 72 hours, P <0.01
  sensitivity to everolimus (cell density): significantly restored sensitivity to everolimus
[2]; T47D Met Y1235D, PHA665752 1 μM + everolimus 1 μM, 72 hours, P <0.01
  sensitivity to everolimus (cell density): significantly restored sensitivity to everolimus
T47D cells with wt Met; T47D wt Met, PHA665752 1 μM + everolimus 1 μM, 72 hours, P <0.01
  sensitivity to everolimus (cell density): significantly restored sensitivity to everolimus
[3]; [6]
  tumor growth inhibition: 85%
[3]; end of the experiment, same regimen
  tumor growth inhibition: 30%
[3]
  Median survival: 57 days
[4]
  tumor volume: greatly reduced
  tumor weight: greatly reduced
phospho-Met
  phosphorylation of Met: reduced the phosphorylation of Met and p70S6K
phospho-p70S6K
  phosphorylation of p70S6K: reduced the phosphorylation of Met and p70S6K

## CN(C)C1CCN(C(=O)c2ccc(NC(=O)Nc3ccc(-c4nc(N5CCOCC5)nc(N5CCOCC5)n4)cc3)cc2)CC1 [PKI-587]
phospho-Met; 786-O and MDA-MB-231 cells
  Met phosphorylation: neither PKI-587 nor OSI-027 inhibited Met phosphorylation
phospho-p70S6K; 0.5 μM
  phospho-p70S6K: reduced phospho-p70S6K

## CO[C@H]1C[C@@H]2CC[C@@H](C)[C@@](O)(O2)C(=O)C(=O)N2CCCC[C@H]2C(=O)O[C@H]([C@H](C)C[C@@H]2CC[C@@H](OCCO)[C@H](OC)C2)CC(=O)[C@H](C)/C=C(\C)[C@@H](O)[C@@H](OC)C(=O)[C@H](C)C[C@H](C)/C=C/C=C/C=C/1C [everolimus]
Met D1228H
  pIC50: < 5.00
Met F1200I
  pIC50: < 5.00
Met M1250T
  pIC50: < 5.00
Met Y1230A
  pIC50: < 5.00
Met Y1230D
  pIC50: < 5.00
Met Y1230H
  pIC50: < 5.00
Met D1228N
  pIC50: < 5.00
Met Wild-type
  pIC50: < 5.00
Met Y1230C
  pIC50: < 5.00
[5]
  pIC50: ≤ 5.30
786-O cells
  pIC50: ≥ 6.30
ACHN cells
  pIC50: ≥ 6.30
HCT116 cells
  pIC50: ≤ 5.30
MDA-MB-231 cells
  pIC50: ≥ 6.30
MDA-MB-361 cells
  pIC50: ≥ 6.30
NCI-H1975 cells
  pIC50: ≥ 6.30
PC-9 cells
  pIC50: ≥ 6.30
[1]; Homo sapiens, T47D with Met M1268T, read-out: drug concentration causing 50% reduction of cell density
  pIC50: < 6.30
[2]; Homo sapiens, T47D with Met Y1235D, read-out: drug concentration causing 50% reduction of cell density
  pIC50: < 6.30
T47D cells with wt Met; Homo sapiens, T47D with wt Met, read-out: drug concentration causing 50% reduction of cell density
  pIC50: < 6.30
[3]; [6]
  tumor growth inhibition: 35%
[3]
  Median survival: 37.5 days
[4]
  tumor volume: large tumors in the cecum and peritoneum
phospho-Met
  phosphorylation of Met: did not affect the phosphorylation of Met or p70S6K
phospho-Met; renal, breast and lung everolimus-sensitive cell lines
  Met phosphorylation: inhibition of Met phosphorylation
phospho-p70S6K
  phosphorylation of p70S6K: did not affect the phosphorylation of Met or p70S6K
phospho-p70S6K; renal, breast and lung everolimus-sensitive cell lines, 0.5 μM
  p70S6K phosphorylation: decreased p70S6K phosphorylation
FKBP12/Met complex; 786-O cells
  amount of FKBP12 co-immunoprecipitated with Met: lower
FKBP12/Met complex; everolimus-resistant 786-O EveR and HCT116 cells
  amount of FKBP12 co-immunoprecipitated with Met: not reduced
